According to patent US20130245081A1, “Compositions and Methods for Treating Amyotrophic Lateral Sclerosis” (priority 2009, published 2013):
Values joined by “and” are separate entries in the source; they are usually repeats but may differ in a detail not shown here. Identical values can stand only once. Like-named read-outs stand apart in the source and are kept apart here. Marks after values point to notes of the source that are not given here.

Tests used:
patients with ALS [1] = system: patients with ALS
patients with ALS [2] = assay: Part 2: 4-week single-blind placebo washout period (withdrawal effects)
[3] = combined active treatment groups, Part 1
[4] = 50 mg during Part 1, placebo washout period
[5] = 150 mg during Part 1, placebo washout period

**Q.** `CCCN[C@@H]1CCc2nc(N)sc2C1` [dexpramipexole, (6R)-2-amino-4,5,6,7-tetrahydro-6-(propylamino)benzothiazole] was tested. Which “Total AE's” value (patients with ALS [1]; 50 mg, 12 weeks) did it give?
**A.** 19 (82.6%) N (%)

**Q.** What about the “percentage of subjects reporting AEs” value (patients with ALS [1]; 50 mg, Part 1) of the same compound?
**A.** 83%

**Q.** And the “subjects reporting SAEs” value (patients with ALS [1]; 50 mg, Part 1)?
**A.** 2 subjects

**Q.** What about the “subjects with at least 1 AE possibly or probably treatment-related” value (patients with ALS [1]; 50 mg, Part 1) of the same compound?
**A.** 17%

**Q.** And the “Total AE's” value (patients with ALS [1]; 150 mg, 12 weeks)?
**A.** 25 (96.2%) N (%)

**Q.** And the “Total AE's” value (patients with ALS [1]; 300 mg, 12 weeks)?
**A.** 23 (88.5%) N (%)

**Q.** What about the “percentage of subjects reporting AEs” value (patients with ALS [1]; 300 mg, Part 1) of the same compound?
**A.** 89%

**Q.** And the “subjects discontinued due to adverse event (nausea)” value (patients with ALS [1]; 300 mg, Part 1)?
**A.** 1 subjects

**Q.** And the “subjects reporting SAEs” value (patients with ALS [1]; 300 mg, Part 1)?
**A.** 3 subjects

**Q.** What about the “subjects with at least 1 AE possibly or probably treatment-related” value (patients with ALS [1]; 300 mg, Part 1) of the same compound?
**A.** 27%

**Q.** And the “deaths during Part 1” value (patients with ALS [1]; 50, 150, 300 mg, 12 weeks)?
**A.** No deaths

**Q.** And the AE fall (patients with ALS [1]; [3])?
**A.** 32%

**Q.** What about the AE headache (patients with ALS [1]; [3]) of the same compound?
**A.** 13%

**Q.** And the AE muscular weakness (patients with ALS [1]; [3])?
**A.** 24%

**Q.** What about the AE nausea (patients with ALS [1]; [3]) of the same compound?
**A.** 11%

**Q.** What about the “AE post lumber puncture syndrome” value (patients with ALS [1]; [3]) of the same compound?
**A.** 19%

**Q.** What about the safety and tolerability (patients with ALS [1]; total daily doses of 50, 150, 300 mg, 12 weeks) of the same compound?
**A.** safe and well-tolerated

**Q.** And the “Neutrophil Count, Mean (SD)” value (patients with ALS [2]; 50 mg during Part 1, Baseline (Part 1: Week 12))?
**A.** 4.539 (1.3112) ×10^3/μL

**Q.** What about the “Neutrophil Count, Mean (SD)” value (patients with ALS [2]; 50 mg during Part 1, Part 2: Week 4 (end of placebo washout)) of the same compound?
**A.** 4.470 (1.3436) ×10^3/μL

**Q.** What about the “ALS-related TEAE: Disease progression” value (patients with ALS [2]; [4]) of the same compound?
**A.** 1 (5%) N (%)

**Q.** And the “ALS-related TEAE: Dyspnoea” value (patients with ALS [2]; [4])?
**A.** 1 (5%) N (%)

**Q.** What about the “ALS-related TEAE: Fall” value (patients with ALS [2]; [4]) of the same compound?
**A.** 2 (9%) N (%)

**Q.** And the “ALS-related TEAE: General Disorders and Administration Site Conditions” value (patients with ALS [2]; [4])?
**A.** 2 (9%) N (%)

**Q.** What about the “ALS-related TEAE: Injury, Poisoning and Procedural Complications” value (patients with ALS [2]; [4]) of the same compound?
**A.** 2 (9%) N (%)

**Q.** And the “ALS-related TEAE: Muscle spasms” value (patients with ALS [2]; [4])?
**A.** 1 (5%) N (%)

**Q.** What about the “ALS-related TEAE: Muscular weakness” value (patients with ALS [2]; [4]) of the same compound?
**A.** 4 (18%) N (%)

**Q.** What about the “ALS-related TEAE: Musculoskeletal and Connective Tissue Disorders” value (patients with ALS [2]; [4]) of the same compound?
**A.** 4 (18%) N (%)

**Q.** What about the “ALS-related TEAE: Respiratory, Thoracic and Mediastinal Disorders” value (patients with ALS [2]; [4]) of the same compound?
**A.** 1 (5%) N (%)

**Q.** And the “Neutrophil Count, Mean Δ (SD) from baseline to Week 4” value (patients with ALS [2]; [4])?
**A.** −0.022 (0.7157) ×10^3/μL

**Q.** What about the “Number of TEAEs” value (patients with ALS [2]; [4]) of the same compound?
**A.** 18

**Q.** What about the “Number of serious TEAEs” value (patients with ALS [2]; [4]) of the same compound?
**A.** 2

**Q.** What about the “Number of severe TEAEs” value (patients with ALS [2]; [4]) of the same compound?
**A.** 2

**Q.** What about the “Number of treatment-related TEAEs” value (patients with ALS [2]; [4]) of the same compound?
**A.** 2

**Q.** And the “Subjects with a TEAE with action taken of study drug discontinued” value (patients with ALS [2]; [4])?
**A.** 0 N (%)

**Q.** What about the “Subjects with ≧1 ALS-related TEAE” value (patients with ALS [2]; [4]) of the same compound?
**A.** 7 (32%) N (%)

**Q.** What about the “TEAE: Anxiety” value (patients with ALS [2]; [4]) of the same compound?
**A.** 1 (5%) N (%)

**Q.** And the “TEAE: Back pain” value (patients with ALS [2]; [4])?
**A.** 2 (9%) N (%)

**Q.** What about the “TEAE: Constipation” value (patients with ALS [2]; [4]) of the same compound?
**A.** 0 N (%)

**Q.** And the “TEAE: Cough” value (patients with ALS [2]; [4])?
**A.** 0 N (%)

**Q.** What about the “TEAE: Diarrhoea” value (patients with ALS [2]; [4]) of the same compound?
**A.** 0 N (%)

**Q.** What about the “TEAE: Dyspnoea” value (patients with ALS [2]; [4]) of the same compound?
**A.** 1 (5%) N (%)

**Q.** And the “TEAE: Fall” value (patients with ALS [2]; [4])?
**A.** 2 (9%) N (%)

**Q.** What about the “TEAE: Gastrointestinal Disorders” value (patients with ALS [2]; [4]) of the same compound?
**A.** 0 N (%)

**Q.** What about the “TEAE: General Disorders and Administration Site Conditions” value (patients with ALS [2]; [4]) of the same compound?
**A.** 2 (9%) N (%)

**Q.** And the “TEAE: Injury, Poisoning and Procedural Complications” value (patients with ALS [2]; [4])?
**A.** 2 (9%) N (%)

**Q.** And the “TEAE: Muscle spasms” value (patients with ALS [2]; [4])?
**A.** 1 (5%) N (%)

**Q.** And the “TEAE: Muscular weakness” value (patients with ALS [2]; [4])?
**A.** 4 (18%) N (%)

**Q.** And the “TEAE: Musculoskeletal and Connective Tissue Disorders” value (patients with ALS [2]; [4])?
**A.** 6 (27%) N (%)

**Q.** And the “TEAE: Nausea” value (patients with ALS [2]; [4])?
**A.** 0 N (%)

**Q.** And the “TEAE: Post lumbar puncture syndrome” value (patients with ALS [2]; [4])?
**A.** 0 N (%)

**Q.** What about the “TEAE: Psychiatric Disorders” value (patients with ALS [2]; [4]) of the same compound?
**A.** 1 (5%) N (%)

**Q.** What about the “TEAE: Pyrexia” value (patients with ALS [2]; [4]) of the same compound?
**A.** 1 (5%) N (%)

**Q.** What about the “TEAE: Respiratory, Thoracic and Mediastinal Disorders” value (patients with ALS [2]; [4]) of the same compound?
**A.** 1 (5%) N (%)

**Q.** What about the “mean change from baseline in ALSFRS-R score over 4 weeks” value (patients with ALS [2]; [4]) of the same compound?
**A.** −0.7

**Q.** What about the “mean change from baseline in VC over 4 weeks” value (patients with ALS [2]; [4]) of the same compound?
**A.** −2.9%

**Q.** And the “serious TEAE: Disease progression” value (patients with ALS [2]; [4])?
**A.** 1 (5%)^a N (%)

**Q.** And the “serious TEAE: Dyspnoea” value (patients with ALS [2]; [4])?
**A.** 1 (5%)^a N (%)

**Q.** And the “serious TEAE: General Disorders and Administration Site Conditions” value (patients with ALS [2]; [4])?
**A.** 1 (5%) N (%)

**Q.** What about the “serious TEAE: Renal and Urinary Disorders” value (patients with ALS [2]; [4]) of the same compound?
**A.** 0 N (%)

**Q.** And the “serious TEAE: Respiratory, Thoracic and Mediastinal Disorders” value (patients with ALS [2]; [4])?
**A.** 1 (5%) N (%)

**Q.** What about the “serious TEAE: Urethral obstruction” value (patients with ALS [2]; [4]) of the same compound?
**A.** 0 N (%)

**Q.** And the “serious TEAE: Urinary retention” value (patients with ALS [2]; [4])?
**A.** 0 N (%)

**Q.** And the “≧1 TEAE” value (patients with ALS [2]; [4])?
**A.** 9 (41%) N (%)

**Q.** And the “≧1 TEAE with an outcome of death” value (patients with ALS [2]; [4])?
**A.** 2 N (%) and 2 (9%) N (%)

**Q.** What about the “≧1 serious TEAE (including death)” value (patients with ALS [2]; [4]) of the same compound?
**A.** 2 (9%) N (%)

**Q.** What about the “≧1 serious treatment-related TEAE” value (patients with ALS [2]; [4]) of the same compound?
**A.** 0 N (%)

**Q.** And the “≧1 severe TEAE” value (patients with ALS [2]; [4])?
**A.** 2 (9%) N (%)

**Q.** And the “≧1 treatment-related TEAE” value (patients with ALS [2]; [4])?
**A.** 2 (9%) N (%)

**Q.** What about the “Neutrophil Count, Mean (SD)” value (patients with ALS [2]; 150 mg during Part 1, Baseline (Part 1: Week 12)) of the same compound?
**A.** 3.931 (1.4130) ×10^3/μL

**Q.** And the “Neutrophil Count, Mean (SD)” value (patients with ALS [2]; 150 mg during Part 1, Part 2: Week 4 (end of placebo washout))?
**A.** 4.753 (1.5327) ×10^3/μL

**Q.** What about the “ALS-related TEAE: Disease progression” value (patients with ALS [2]; [5]) of the same compound?
**A.** 0 N (%)

**Q.** And the “ALS-related TEAE: Dyspnoea” value (patients with ALS [2]; [5])?
**A.** 0 N (%)

**Q.** What about the “ALS-related TEAE: Fall” value (patients with ALS [2]; [5]) of the same compound?
**A.** 3 (12%) N (%)

**Q.** What about the “ALS-related TEAE: General Disorders and Administration Site Conditions” value (patients with ALS [2]; [5]) of the same compound?
**A.** 0 N (%)

**Q.** What about the “ALS-related TEAE: Injury, Poisoning and Procedural Complications” value (patients with ALS [2]; [5]) of the same compound?
**A.** 3 (12%) N (%)

**Q.** And the “ALS-related TEAE: Muscle spasms” value (patients with ALS [2]; [5])?
**A.** 1 (4%) N (%)

**Q.** And the “ALS-related TEAE: Muscular weakness” value (patients with ALS [2]; [5])?
**A.** 1 (4%) N (%)

**Q.** What about the “ALS-related TEAE: Musculoskeletal and Connective Tissue Disorders” value (patients with ALS [2]; [5]) of the same compound?
**A.** 2 (8%) N (%)

**Q.** What about the “ALS-related TEAE: Respiratory, Thoracic and Mediastinal Disorders” value (patients with ALS [2]; [5]) of the same compound?
**A.** 1 (4%) N (%)

**Q.** What about the “Neutrophil Count, Mean Δ (SD) from baseline to Week 4” value (patients with ALS [2]; [5]) of the same compound?
**A.** 0.841 (1.1854) ×10^3/μL

**Q.** What about the “Number of TEAEs” value (patients with ALS [2]; [5]) of the same compound?
**A.** 29

**Q.** What about the “Number of serious TEAEs” value (patients with ALS [2]; [5]) of the same compound?
**A.** 0

**Q.** And the “Number of severe TEAEs” value (patients with ALS [2]; [5])?
**A.** 0

**Q.** And the “Number of treatment-related TEAEs” value (patients with ALS [2]; [5])?
**A.** 5

**Q.** And the “Subjects with a TEAE with action taken of study drug discontinued” value (patients with ALS [2]; [5])?
**A.** 0 N (%)
